Data set [1] relates to peripheral neuropathies caused by diabetes. Particulars: 500 mg twice a day for two weeks; cited from earlier work.
Data set [2] is described as follows: Stability trial, 5 days at 53° C., degradation evaluated by HPCEC-UV. In kind it is physicochemical. As for the experimental part:
The evaluation of the degradation was carried out by HPCEC-UV analysis using 0.5M (pH 4) ammonium formiate as an eluent, a flow of 1.2 ml/min, and a Supelcosil LC-SCX column (25 cm, 4.6 mm, 5 micron). The product thus obtained was subjected to stability trials according to a procedure similar to the one adopted for the Comparative Example above. […] Also in this case, the evaluation of the degradation was carried out by HPCEC-UV analysis using 0.5M ammonium formiate (pH 4) as an eluent, a flow of 1.2 ml/min, and a Supelcosil LC-SCX column (25 cm, 4.6 mm, 5 μm).

As for `O[C@H]1[C@H](O)[C@@H](O)[C@H](O)[C@@H](O)[C@H]1O` [inositol], the therapeutic result in data set [1] is listed as “considerable results”.

SAMe Phytate Salt [Example 1]: the stability entry in data set [2] (5 days at 53° C.) is listed as “very stable”.

With “SAMe salt with phytic acid [SAMe phytate complex]”, the SAMe ion amounted to 23.2 % p/p in data set [2] (Lot 1, after 5 days at 53° C.); 25.2 % p/p in data set [2] (Lot 1, immediately after preparation); 23.3 % p/p in data set [2] (Lot 2, after 5 days at 53° C.); 25.1 % p/p in data set [2] (Lot 2, immediately after preparation); 23.2 % p/p in data set [2] (Lot 3, after 5 days at 53° C.); 25.3 % p/p in data set [2] (Lot 3, immediately after preparation). Moreover, the SAMe ion in data set [2] (Mean of 3 lots, after 5 days at 53° C.) came out at 23.2 % p/p; in data set [2] (Mean of 3 lots, immediately after preparation), 25.2 % p/p. The “% Variation of SAMe ion” value was −7.9% in data set [2] (Lot 1, after 5 days at 53° C. vs initial); −7.2% in data set [2] (Lot 2, after 5 days at 53° C. vs initial); −8.3% in data set [2] (Lot 3, after 5 days at 53° C. vs initial); −7.8% in data set [2] (Mean of 3 lots, after 5 days at 53° C. vs initial).

The record behind these values is patent US20090175914A1, “Salts or Complexes of Methyl Donors With Phytic Acid or Its Derivatives and Method for the Synthesis Thereof” (priority 2005, published 2009).
